A short description of the data set: in vivo. To be noted: for concentration at 1 day / concentration at 7 day / concentration at 14 day / concentration at 21 day / concentration at 28 day / concentration at 35 day / concentration at 42 day / concentration at 49 day / concentration at 56 day / concentration at 63 day / concentration at 70 day / concentration at 77 day / concentration at 84 day: male, Wistar Han, rat, in vivo. The essentials:
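Three male Wistar Han rats (200-250 g), not fasted, received a single intramuscular gastrocnemius injection of prodrug suspension at 20 mg/kg EFdA equivalent. Tail-vein blood was taken into NaF/Na2EDTA, mixed 1:1 with 100 mM ammonium acetate pH 4, frozen, and analysed by LC-MS/MS.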

Read-outs that look alike come from different tables or passages of the source.

Take `C#C[C@]1(COP(=O)(N[C@@H](Cc2cc(F)cc(F)c2)C(=O)OCCCCCCCCCCCCCCCCCC)Oc2ccccc2)O[C@@H](n2cnc3c(N)nc(F)nc32)C[C@@H]1O` (single isomer, unassigned) [Example 40A]: the “Mean concentration of EFdA” value runs as follows: (day 14, single IM Example 40A 60 mg/kg) “BQL (BQL = below quantification limit, 0.3 ng/ml for both)”; (day 21, single IM Example 40A 60 mg/kg) “BQL (BQL = below quantification limit, 0.3 ng/ml for both)”; (day 28, single IM Example 40A 60 mg/kg) “BQL (BQL = below quantification limit, 0.3 ng/ml for both)”; (day 35, single IM Example 40A 60 mg/kg) “BQL (BQL = below quantification limit, 0.3 ng/ml for both)”; (day 42, single IM Example 40A 60 mg/kg) “BQL (BQL = below quantification limit, 0.3 ng/ml for both)”; (day 49, single IM Example 40A 60 mg/kg) “BQL (BQL = below quantification limit, 0.3 ng/ml for both)”. Further, the “Mean concentration of EFdA” value by setting is: (day 56, single IM Example 40A 60 mg/kg) “BQL (BQL = below quantification limit, 0.3 ng/ml for both)”; (day 63, single IM Example 40A 60 mg/kg) “BQL (BQL = below quantification limit, 0.3 ng/ml for both)”; (day 70, single IM Example 40A 60 mg/kg) “BQL (BQL = below quantification limit, 0.3 ng/ml for both)”; (day 77, single IM Example 40A 60 mg/kg) “BQL (BQL = below quantification limit, 0.3 ng/ml for both)”; (day 84, single IM Example 40A 60 mg/kg) “BQL (BQL = below quantification limit, 0.3 ng/ml for both)”. Moreover, for the setting “day 1, single IM Example 40A 60 mg/kg, read-out: Mean concentration of Example 40A”, the concentration at 1 day came to 59.2 ng/mL. For the same compound, where the note is “day 7, single IM Example 40A 60 mg/kg, read-out: Mean concentration of Example 40A”, the concentration at 7 day stood at 22.4 ng/mL. Moreover, the concentration at 14 day (day 14, single IM Example 40A 60 mg/kg, read-out: Mean concentration of Example 40A) is 11.2 ng/mL. For the setting “day 21, single IM Example 40A 60 mg/kg, read-out: Mean concentration of Example 40A”, the concentration at 21 day came to 11.2 ng/mL. Where the note is “day 28, single IM Example 40A 60 mg/kg, read-out: Mean concentration of Example 40A”, the concentration at 28 day was found to be 12.7 ng/mL. For the same compound, the concentration at 35 day (day 35, single IM Example 40A 60 mg/kg, read-out: Mean concentration of Example 40A) was found to be 12.6 ng/mL. For the same compound, under “day 42, single IM Example 40A 60 mg/kg, read-out: Mean concentration of Example 40A”, the concentration at 42 day turned out to be 13.2 ng/mL. The concentration at 49 day (day 49, single IM Example 40A 60 mg/kg, read-out: Mean concentration of Example 40A) worked out at 11.7 ng/mL. Further, under “day 56, single IM Example 40A 60 mg/kg, read-out: Mean concentration of Example 40A”, the concentration at 56 day was 14.7 ng/mL. The concentration at 63 day (day 63, single IM Example 40A 60 mg/kg, read-out: Mean concentration of Example 40A) came to 13 ng/mL. For the same compound, the concentration at 70 day (day 70, single IM Example 40A 60 mg/kg, read-out: Mean concentration of Example 40A) was 12.2 ng/mL. Besides, the concentration at 77 day (day 77, single IM Example 40A 60 mg/kg, read-out: Mean concentration of Example 40A) worked out at 11.7 ng/mL. For the same compound, for the setting “day 84, single IM Example 40A 60 mg/kg, read-out: Mean concentration of Example 40A”, the concentration at 84 day turned out to be 10.3 ng/mL.

Regarding `C#C[C@]1(COP(=O)(N[C@@H](Cc2ccccc2)C(=O)OCCCCCCCCCCCCCCCCC)Oc2ccccc2)O[C@@H](n2cnc3c(N)nc(F)nc32)C[C@@H]1O` (single isomer, unassigned) [Example 20A], the “Mean concentration of EFdA” value is “BQL (BQL = below quantification limit, 0.3 ng/mL for Example 20A and 0.1-0.3 ng/mL for EFdA)” (day 77, single IM Example 20A 57 mg/kg); “BQL (BQL = below quantification limit, 0.3 ng/mL for Example 20A and 0.1-0.3 ng/mL for EFdA)” (day 84, single IM Example 20A 57 mg/kg). Also, where the note is “day 1, single IM Example 20A 57 mg/kg, read-out: Mean concentration of Example 20A”, the concentration at 1 day turned out to be 15.3 ng/mL. Besides, the concentration at 7 day (day 7, single IM Example 20A 57 mg/kg, read-out: Mean concentration of Example 20A) turned out to be 14.6 ng/mL. For the same compound, where the note is “day 14, single IM Example 20A 57 mg/kg, read-out: Mean concentration of Example 20A”, the concentration at 14 day amounted to 13.8 ng/mL. Besides, the concentration at 21 day (day 21, single IM Example 20A 57 mg/kg, read-out: Mean concentration of Example 20A) amounted to 9.76 ng/mL. Also, under “day 28, single IM Example 20A 57 mg/kg, read-out: Mean concentration of Example 20A”, the concentration at 28 day turned out to be 8.45 ng/mL. In addition, the concentration at 35 day (day 35, single IM Example 20A 57 mg/kg, read-out: Mean concentration of Example 20A) came out at 13.3 ng/mL. Moreover, the concentration at 42 day (day 42, single IM Example 20A 57 mg/kg, read-out: Mean concentration of Example 20A) is 5.27 ng/mL. Moreover, the concentration at 49 day (day 49, single IM Example 20A 57 mg/kg, read-out: Mean concentration of Example 20A) was determined as 4.25 ng/mL. For the same compound, the concentration at 56 day (day 56, single IM Example 20A 57 mg/kg, read-out: Mean concentration of Example 20A) was found to be 3.2 ng/mL. Moreover, for the setting “day 63, single IM Example 20A 57 mg/kg, read-out: Mean concentration of Example 20A”, the concentration at 63 day turned out to be 4.84 ng/mL. Also, where the note is “day 70, single IM Example 20A 57 mg/kg, read-out: Mean concentration of Example 20A”, the concentration at 70 day is 2.74 ng/mL. The concentration at 77 day (day 77, single IM Example 20A 57 mg/kg, read-out: Mean concentration of Example 20A) worked out at 4 ng/mL. Moreover, the concentration at 84 day (day 84, single IM Example 20A 57 mg/kg, read-out: Mean concentration of Example 20A) worked out at 3.32 ng/mL.

For the compound `C#C[C@]1(COP(=O)(N[C@@H](Cc2ccccc2)C(=O)OC(CCCCCCCCCCC)CCCCCCCCCCC)Oc2ccccc2)O[C@@H](n2cnc3c(N)nc(F)nc32)C[C@@H]1O` (single isomer, unassigned) [Example 26A], the “Mean concentration of EFdA” value is “BQL (BQL = below quantification limit, 0.3 ng/ml for both)” (day 1, single IM Example 26A 63 mg/kg); “BQL (BQL = below quantification limit, 0.3 ng/ml for both)” (day 7, single IM Example 26A 63 mg/kg); “BQL (BQL = below quantification limit, 0.3 ng/ml for both)” (day 14, single IM Example 26A 63 mg/kg); “BQL (BQL = below quantification limit, 0.3 ng/ml for both)” (day 21, single IM Example 26A 63 mg/kg); “BQL (BQL = below quantification limit, 0.3 ng/ml for both)” (day 28, single IM Example 26A 63 mg/kg); “BQL (BQL = below quantification limit, 0.3 ng/ml for both)” (day 35, single IM Example 26A 63 mg/kg). Besides, the “Mean concentration of EFdA” value was “BQL (BQL = below quantification limit, 0.3 ng/ml for both)” (day 42, single IM Example 26A 63 mg/kg); “BQL (BQL = below quantification limit, 0.3 ng/ml for both)” (day 49, single IM Example 26A 63 mg/kg); “BQL (BQL = below quantification limit, 0.3 ng/ml for both)” (day 56, single IM Example 26A 63 mg/kg); “BQL (BQL = below quantification limit, 0.3 ng/ml for both)” (day 63, single IM Example 26A 63 mg/kg); “BQL (BQL = below quantification limit, 0.3 ng/ml for both)” (day 70, single IM Example 26A 63 mg/kg); “BQL (BQL = below quantification limit, 0.3 ng/ml for both)” (day 77, single IM Example 26A 63 mg/kg). In addition, the “Mean concentration of EFdA” value (day 84, single IM Example 26A 63 mg/kg) is reported as “BQL (BQL = below quantification limit, 0.3 ng/ml for both)”. Moreover, the concentration at 1 day (day 1, single IM 63 mg/kg, read-out: Mean concentration of Example 26A) is 72.7 ng/mL. Where the note is “day 7, single IM 63 mg/kg, read-out: Mean concentration of Example 26A”, the concentration at 7 day was 37.6 ng/mL. Besides, under “day 14, single IM 63 mg/kg, read-out: Mean concentration of Example 26A”, the concentration at 14 day was 33.8 ng/mL. In addition, the concentration at 21 day (day 21, single IM 63 mg/kg, read-out: Mean concentration of Example 26A) was found to be 22.9 ng/mL. Further, the concentration at 28 day (day 28, single IM 63 mg/kg, read-out: Mean concentration of Example 26A) worked out at 18.5 ng/mL. The concentration at 35 day (day 35, single IM 63 mg/kg, read-out: Mean concentration of Example 26A) worked out at 14.4 ng/mL. In addition, the concentration at 42 day (day 42, single IM 63 mg/kg, read-out: Mean concentration of Example 26A) was 11.1 ng/mL. Further, where the note is “day 49, single IM 63 mg/kg, read-out: Mean concentration of Example 26A”, the concentration at 49 day came out at 9.62 ng/mL. Under “day 56, single IM 63 mg/kg, read-out: Mean concentration of Example 26A”, the concentration at 56 day was 9.8 ng/mL. Moreover, under “day 63, single IM 63 mg/kg, read-out: Mean concentration of Example 26A”, the concentration at 63 day turned out to be 11.5 ng/mL. For the same compound, for the setting “day 70, single IM 63 mg/kg, read-out: Mean concentration of Example 26A”, the concentration at 70 day is 9.95 ng/mL. The concentration at 77 day (day 77, single IM 63 mg/kg, read-out: Mean concentration of Example 26A) is 9.69 ng/mL. In addition, the concentration at 84 day (day 84, single IM 63 mg/kg, read-out: Mean concentration of Example 26A) was determined as 7.43 ng/mL.

The values are drawn from patent US20230151049A1, “Compounds Useful in HIV Therapy” (priority 2020, published 2023).
